Results: PMC10031466, “The ROK kinase N-acetylglucosamine kinase uses a sequential random enzyme mechanism with successive conformational changes upon each substrate binding” (The Journal of Biological Chemistry, 2023)

Key:
[1] = target: T1, N-acetylglucosamine kinase (PsNagK) (Plesiomonas shigelloides, UniProt R8APY9); experiment: crystal structures (binary 7PA1; ternary with GlcNAc 7P9P); isothermal differential scanning fluorimetry; type: binding
T1 construct: gene nagK; His-SUMO tagged P. shigelloides NagK (crystallization)
T1 sequence (R8APY9 1-303): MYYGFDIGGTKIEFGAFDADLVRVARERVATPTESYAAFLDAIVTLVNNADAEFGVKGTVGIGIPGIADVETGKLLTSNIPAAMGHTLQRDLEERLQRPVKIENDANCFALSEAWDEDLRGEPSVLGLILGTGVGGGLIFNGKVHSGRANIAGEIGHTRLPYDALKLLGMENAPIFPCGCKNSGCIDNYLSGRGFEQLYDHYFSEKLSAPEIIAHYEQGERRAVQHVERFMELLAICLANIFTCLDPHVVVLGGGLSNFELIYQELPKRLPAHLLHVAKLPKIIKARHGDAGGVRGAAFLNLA

[2] = target: T1, N-acetylglucosamine kinase (PsNagK); experiment: crystal structure; isothermal differential scanning fluorimetry; type: binding

| SMILES | Kd [1] [mM] | Kd [2] [mM] |
| --- | --- | --- |
| Nc1ncnc2c1ncn2[C@@H]1O[C@H](COP(=O)(O)OP(=O)(O)NP(=O)(O)O)[C@@H](O)[C@H]1O [AMP-PNP] | 2.2 ± 0.6 | – |
| CC(=O)N[C@@H]1[C@@H](O)[C@H](O)[C@@H](CO)O[C@@H]1O [GlcNAc, N-acetyl-D-glucosamine] | – | 0.23 ± 0.02 |
